According to ChEMBL document CHEMBL2413012, “Inhibition of tumor-associated human carbonic anhydrase isozymes IX and XII by a new class of substituted-phenylacetamido aromatic sulfonamides” (Bioorg Med Chem, 2013):

biological target: Carbonic anhydrase 12 (Homo sapiens, UniProt O43570); test: Inhibition of human recombinant carbonic anhydrase 12 preincubated for 10 mins by CO2 hydration stopped-flow assay
Sequence (O43570 whole entry): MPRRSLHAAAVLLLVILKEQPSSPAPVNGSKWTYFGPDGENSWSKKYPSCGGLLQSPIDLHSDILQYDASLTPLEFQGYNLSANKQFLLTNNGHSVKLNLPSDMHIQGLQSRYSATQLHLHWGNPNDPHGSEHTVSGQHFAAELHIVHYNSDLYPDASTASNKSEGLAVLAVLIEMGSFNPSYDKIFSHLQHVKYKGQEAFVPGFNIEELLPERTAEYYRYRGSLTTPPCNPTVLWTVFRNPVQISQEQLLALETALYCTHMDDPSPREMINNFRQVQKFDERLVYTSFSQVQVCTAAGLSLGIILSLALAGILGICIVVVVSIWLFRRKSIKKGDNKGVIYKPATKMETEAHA

| Ki | SMILES |
| --- | --- |
| 0.43 nM | COc1ccc(CC(=O)NCCc2ccc(S(N)(=O)=O)cc2)cc1 |
| 3.4 nM | NS(=O)(=O)c1ccc(CCNC(=O)Cc2ccc(Cl)cc2)cc1 |

biological target: Carbonic anhydrase 9 (Homo sapiens, UniProt Q16790); test: Inhibition of human recombinant carbonic anhydrase 9 preincubated for 10 mins by CO2 hydration stopped-flow assay

| SMILES | Ki |
| --- | --- |
| NS(=O)(=O)c1ccc(NC(=O)Cc2ccccc2Br)c(Br)c1 | 0.52 nM |
| COc1ccc(CC(=O)Nc2ccc(S(N)(=O)=O)cc2Br)cc1 | 0.62 nM |
| NS(=O)(=O)c1ccc(CCNC(=O)Cc2ccccc2Br)cc1 | 0.57 nM |
| NS(=O)(=O)c1nnc(NC(=O)Cc2ccc(F)cc2)s1 | 2.1 nM |
| NS(=O)(=O)c1nnc(NC(=O)Cc2ccc(Cl)cc2)s1 | 1.3 nM |
| NS(=O)(=O)c1nnc(NC(=O)Cc2ccccc2Br)s1 | 0.61 nM |
| COc1ccc(CC(=O)Nc2nnc(S(N)(=O)=O)s2)cc1 | 0.31 nM |
| NS(=O)(=O)c1ccc(NC(=O)Cc2ccc(F)cc2)cc1 | 4.7 nM |
| NS(=O)(=O)c1ccc(NC(=O)Cc2ccccc2Br)cc1 | 0.44 nM |
| COc1ccc(CC(=O)Nc2ccc(S(N)(=O)=O)cc2)cc1 | 0.32 nM |
| NS(=O)(=O)c1ccc(NC(=O)Cc2ccc(F)cc2)c(F)c1 | 7.2 nM |
| NS(=O)(=O)c1ccc(NC(=O)Cc2ccccc2Br)c(F)c1 | 1.6 nM |
| COc1ccc(CC(=O)Nc2ccc(S(N)(=O)=O)cc2F)cc1 | 1.8 nM |
| NS(=O)(=O)c1ccc(NC(=O)Cc2ccc(F)cc2)c(Cl)c1 | 10.1 nM |
| NS(=O)(=O)c1ccc(NC(=O)Cc2ccccc2Br)c(Cl)c1 | 0.74 nM |
| COc1ccc(CC(=O)Nc2ccc(S(N)(=O)=O)cc2Cl)cc1 | 0.41 nM |
| NS(=O)(=O)c1ccc(NC(=O)Cc2ccc(F)cc2)c(Br)c1 | 5 nM |

The remaining lines, values ahead:

| Ki | SMILES |
| --- | --- |
| 0.25 nM | COc1ccc(CC(=O)NCCc2ccc(S(N)(=O)=O)cc2)cc1 |
| 1.2 nM | NS(=O)(=O)c1ccc(CCNC(=O)Cc2ccc(Cl)cc2)cc1 |
| 1.2 nM | NS(=O)(=O)c1ccc(NC(=O)Cc2ccc(Cl)cc2)c(Br)c1 |
| 0.53 nM | NS(=O)(=O)c1ccc(CNC(=O)Cc2ccc(Cl)cc2)cc1 |
| 1 nM | NS(=O)(=O)c1ccc(CNC(=O)Cc2ccccc2Br)cc1 |
| 0.45 nM | COc1ccc(CC(=O)NCc2ccc(S(N)(=O)=O)cc2)cc1 |
| 6.5 nM | NS(=O)(=O)c1ccc(CCNC(=O)Cc2ccc(F)cc2)cc1 |
| 72.5 nM | NS(=O)(=O)c1ccc(NC(=O)Cc2ccc(Cl)cc2)cc1 |
| 7.8 nM | NS(=O)(=O)c1ccc(NC(=O)Cc2ccc(Cl)cc2)c(F)c1 |
| 6.3 nM | NS(=O)(=O)c1ccc(NC(=O)Cc2ccc(Cl)cc2)c(Cl)c1 |
